Laboratory results as given in patent publication US11684582B2, “Method for stabilizing humidity-sensitive pharmaceutical substance and stabilized preparation thereof” (Delta-Fly Pharma, Inc., priority 2021, dated 2023).

Legend:
[1] = test system: patients having a solid cancer; details: phase-I trial, patients with solid cancer; cited from earlier work
cancer-bearing nude rats = details: oral, versus TS-1; cited from earlier work
[2] = stability test in acceleration conditions (25° C./humidity 60%): appearance, purity and analogs by HPLC, water content, disintegration time, microbial content; type: physicochemical
[3] = bulk drug, 25° C./60% RH, after 3 months

Structure (SMILES): CCOCn1cc(F)c(=O)n(C(=O)c2cccc(C(=O)Oc3cc(OC(=O)c4cc(OC(=O)CC)nc(OC(=O)CC)c4)c(Cl)cn3)c2)c1=O [DFP-11207]
- safety (serious gastrointestinal toxicity, reduced blood platelet count) [1]: none of serious gastrointestinal toxicity such as diarrhea and toxicity of reduced blood platelet count were observed
- therapeutic effects (cancer-bearing nude rats): more excellent than TS-1
- stable period (specifications satisfied) ([2]; acceleration conditions (25° C./humidity 60%)): ≤ 3 months
- Analog (% area): Analog-1 (RRT 0.42) [2, 3]: 0.18%
- Analog (% area): Impurity 1 (RRT 0.49) [2, 3]: 0.73%
- Analog (% area): Impurity 2 (RRT 0.74) [2, 3]: 2.13%
- Analog (% area): Impurity 3 (RRT 0.83) [2, 3]: 0.49%
- Analog (% area): Impurity 4 (RRT 1.13) [2, 3]: 0.86%
- Analog (% area): Total impurities [2, 3]: 5.8%
- Analog (% area): relative elution time 0.30 [2, 3]: 0.27%
- Analog (% area): relative elution time 0.80 [2, 3]: 0.21%
- Analog (% area): relative elution time 0.88 [2, 3]: 0.07%
- Analog (% area): relative elution time 0.89 [2, 3]: 0.05%
- Analog (% area): relative elution time 0.90 [2, 3]: 0.10%
- Analog (% area): relative elution time 0.92 [2, 3]: 0.15%
- Analog (% area): relative elution time 0.93 [2, 3]: 0.13%
- Analog (% area): relative elution time 0.94 [2, 3]: 0.05%
- Analog (% area): relative elution time 1.03 [2, 3]: 0.22%
- Analog (% area): relative elution time 1.29 [2, 3]: 0.06%
- Analog (% area): relative elution time 1.30 [2, 3]: 0.09%
- Appearance [2, 3]: Grayish-white
- Purity (% area) [2, 3]: 94.0%
- Water content [2, 3]: 0.2%
- Passing status: Appearance ([2]; bulk drug, 25° C./60% RH, after 3 months, specification Grayish-white to pale yellow): Passed
- Passing status: Water content ([2]; bulk drug, 25° C./60% RH, after 3 months, specification ≤0.5%): Passed
- Passing status: Analog, individual impurities ([2]; bulk drug, 25° C./60% RH, after 3 months, specification ≤1.0%): Not
- Passing status: Total impurities ([2]; bulk drug, 25° C./60% RH, after 3 months, specification ≤4.0%): Not
